Test results from US20250282749A1 (Tango Therapeutics, Inc., priority 2022, published 2025).

Assays:
Format in all cases: cell-based
[1] = tested on: PRMT5 (SDMA) in HAP1 MTAP-deleted cell line; assay: SDMA in-cell western assay, HAP1 MTAP-deleted cell line; conditions: for IC50 / IC90: Homo sapiens, SDMA in-cell western, HAP1 MTAP-deleted (MTAP-null) cell line; for Hap1 MTAP intact/deleted ratio: ratio of SDMA in-cell western IC50 in HAP1 MTAP-intact to IC50 in HAP1 MTAP-deleted cell line
Excerpt: (§1) HAP1 MTAP-intact is a cell line in which endogenous levels of MTAP are expressed, and HAP1 MTAP-deleted is an MTAP-null cell line.

[2] = tested on: PRMT5 (SDMA) in HAP1 MTAP-intact cell line; assay: SDMA in-cell western assay, HAP1 MTAP-intact cell line; conditions: Homo sapiens, HAP1 MTAP-intact cell line (endogenous MTAP), read-out: Hap 1 MTAP intact IC50
Excerpt: as §1

[3] = tested on: HAP1 MTAP-deleted cell line; assay: viability assay for the MTAP-deleted cell line; conditions: Homo sapiens

Row | Structure (SMILES) | IC50 [1] [nM] | IC90 [1] [nM] | IC50 [2] [nM] | Hap1 MTAP intact/deleted ratio [1] | IC50 [3] [nM]
1 | C[C@@H]1CN(C(=O)C(=O)Nc2cncc3cn[nH]c23)[C@@H](c2ccc3scnc3c2)CN1C(=O)C1(C)CC1 (racemic) [Compound 61, 2-oxo-N-(1H-pyrazolo[4,3-c]pyridin-7-yl)-2-[rac-(2S,5R)-2-(1,3-benzothiazol-5-yl)-5-methyl-4-(1-methylcyclopropanecarbonyl)piperazin-1-yl]acetamide] | 5 to 50 | 75 to 125 | > 50 | C (an IC50 ratio of less than 15 fold) | 100 to 1000
2 | CCN1C[C@H](c2ccccc2)N(C(=O)C(=O)Nc2cnc(N)c3cn[nH]c23)C[C@H]1C (racemic) [Compound 162, N-(4-Amino-1H-pyrazolo[4,3-c]pyridin-7-yl)-2-oxo-2-[rac-(2S,5R)-4-ethyl-5-methyl-2-phenyl-piperazin-1-yl]acetamide] | < 5 | – | > 50 | A (an IC50 ratio greater than or equal to 30 fold) | < 100
3 | C[C@@H]1CN(C(=O)C(=O)Nc2cnc(N)c3cn[nH]c23)[C@@H](c2ccccc2)CN1C1CCC1 (racemic) [Compound 163, N-(4-Amino-2H-pyrazolo[4,3-c]pyridin-7-yl)-2-oxo-2-[rac-(2S,5R)-4-cyclobutyl-5-methyl-2-phenyl-piperazin-1-yl]acetamide] | < 5 | – | 5 to 50 | C (an IC50 ratio of less than 15 fold) | < 100
4 | C[C@@H]1CN(C(=O)C(=O)Nc2cnc(N)c3cn[nH]c23)[C@@H](c2ccccc2)CN1C1(C)CC1 (racemic) [Compound 167, N-(4-Amino-1H-pyrazolo[4,3-c]pyridin-7-yl)-2-oxo-2-[rac-(2S,5R)-5-methyl-4-(1-methylcyclopropyl)-2-phenyl-piperazin-1-yl]acetamide] | < 5 | – | > 50 | A (an IC50 ratio greater than or equal to 30 fold) | < 100
5 | C[C@@H]1CN(C(=O)C(=O)Nc2cnc(N)c3cn[nH]c23)[C@@H](c2ccccc2)CN1C1CC1 (racemic) [Compound 170, N-(4-Amino-1H-pyrazolo[4,3-c]pyridin-7-yl)-2-oxo-2-[rac-(2S,5R)-4-cyclopropyl-5-methyl-2-phenyl-piperazin-1-yl]acetamide] | < 5 | – | 5 to 50 | C (an IC50 ratio of less than 15 fold) | < 100
6 | Cc1cc(NC(=O)C(=O)N2C[C@@H](C)N(C(=O)C3(C)CC3)C[C@@H]2c2cccs2)cnc1N (single isomer, unassigned) [Compound 53] | < 5 | < 75 | 5 to 50 | C (an IC50 ratio of less than 15 fold) | < 100
7 | CCc1cc(NC(=O)C(=O)N2CCN(C(=O)C3(C(F)(F)F)CC3)C[C@H]2c2ccc(F)c(Cl)c2)cnc1N (single isomer, unassigned) [Compound 123] | 5 to 50 | > 125 | > 50 | A (an IC50 ratio greater than or equal to 30 fold) | 100 to 1000
8 | Cc1cc(NC(=O)C(=O)N2CCN(C(=O)C3(C(F)(F)F)CC3)[C@H](C)[C@H]2c2ccc(F)cc2)cnc1N (stereo in doubt) [Compound 118, N-(6-amino-5-methyl-3-pyridyl)-2-[2-(4-fluorophenyl)-3-methyl-4-[1-(trifluoromethyl)cyclopropanecarbonyl]piperazin-1-yl]-2-oxo-acetamide] | 5 to 50 | > 125 | > 50 | B (an IC50 ratio greater than or equal to 15 fold but lower than 30 fold) | 100 to 1000
9 | CC(C)C(=O)N1C[C@H](c2ccccc2)N(C(=O)C(=O)Nc2cnc(N)c3c2cnn3C)C[C@H]1C [Compound 165, N-(7-Amino-1-methyl-pyrazolo[3,4-c]pyridin-4-yl)-2-oxo-2-[(2S,5R)-5-methyl-4-(2-methylpropanoyl)-2-phenyl-piperazin-1-yl]acetamide] | – | – | – | – | < 100
10 | C[C@@H]1CN(C(=O)C(=O)Nc2cnc(N)c3c2cnn3C)[C@@H](c2ccccc2)CN1C(=O)C1(C(F)(F)F)CC1 [Compound 166, N-(7-Amino-1-methyl-pyrazolo[3,4-c]pyridin-4-yl)-2-oxo-2-[(2S,5R)-5-methyl-2-phenyl-4-[1-(trifluoromethyl)cyclopropanecarbonyl]piperazin-1-yl]acetamide] | – | – | – | – | < 100
11 | CC(=O)N1C[C@H](c2ccccc2)N(C(=O)C(=O)Nc2cnc(N)c3c2cnn3C)C[C@H]1C [Compound 168, N-(7-Amino-1-methyl-pyrazolo[3,4-c]pyridin-4-yl)-2-oxo-2-[(2S,5R)-4-acetyl-5-methyl-2-phenyl-piperazin-1-yl]acetamide] | – | – | – | – | < 100

Further lines, with some results ahead:

Row | IC50 [1] [nM] | IC90 [1] [nM] | IC50 [2] [nM] | Structure (SMILES) | Hap1 MTAP intact/deleted ratio [1] | IC50 [3] [nM]
12 | 5 to 50 | > 125 | > 50 | CC(C)C(=O)N1C[C@H](c2ccc(N3CCN(C)CC3)cc2)N(C(=O)C(=O)Nc2cnc(N)c(C3CC3)c2)C[C@H]1C (racemic) [Compound 4, rac-N-(6-amino-5-cyclopropylpyridin-3-yl)-2-((2R,5S)-4-isobutyryl-5-methyl-2-(4-(4-methylpiperazin-1-yl)phenyl)piperazin-1-yl)-2-oxoacetamide] | C (an IC50 ratio of less than 15 fold) | 100 to 1000
13 | 5 to 50 | > 125 | > 50 | Cc1cc(NC(=O)C(=O)N2C[C@@H](C)N(C(=O)C(C)C)C[C@@H]2c2ccc3scnc3c2)cnc1N (single isomer, unassigned) [Compound 43] | C (an IC50 ratio of less than 15 fold) | 100 to 1000
14 | > 50 | > 125 | > 50 | Cc1cc(NC(=O)C(=O)N2C[C@H](C)N(C(=O)C(C)C)C[C@H]2c2ccc3scnc3c2)cnc1N (single isomer, unassigned) [Compound 45] | C (an IC50 ratio of less than 15 fold) | > 1000
15 | 5 to 50 | < 75 | > 50 | CC(C)CN1C[C@@H](c2ccc(F)cc2)N(C(=O)C(=O)Nc2cnc(N)c(C3CC3)c2)C[C@H]1C (single isomer, unassigned) [Compound 84] | A (an IC50 ratio greater than or equal to 30 fold) | < 100
16 | > 50 | > 125 | > 50 | CC(C)OC(=O)N1C[C@H](c2ccc(F)cc2)N(C(=O)C(=O)Nc2cnc(N)c(C3CC3)c2)C[C@H]1C (stereo in doubt) [Compound 92, isopropyl 4-(2-((6-amino-5-cyclopropylpyridin-3-yl)amino)-2-oxoacetyl)-5-(4-fluorophenyl)-2-methylpiperazine-1-carboxylate] | C (an IC50 ratio of less than 15 fold) | > 1000
17 | < 5 | < 75 | > 50 | C[C@@H]1CN(C(=O)C(=O)Nc2cnc(N)c(C3CC3)c2)[C@@H](c2ccc(F)cc2)CN1C(=O)OC(C)(C)C (stereo in doubt) [Compound 144, tert-butyl 4-(2-((6-amino-5-cyclopropylpyridin-3-yl)amino)-2-oxoacetyl)-5-(4-fluorophenyl)-2-methylpiperazine-1-carboxylate] | B (an IC50 ratio greater than or equal to 15 fold but lower than 30 fold) | < 100
